Experiment: Hygroscopic property (preservation stability) at 23° C., ambient pressure, humidity 70%
Type: physicochemical
Settings: humidity of 70%
Excerpt: Hereinafter, the preservation stability (hygroscopic property) of the crystal of oxidized glutathione according to the present invention will be described in detail with reference to Test Example.

Substance: oxidized glutathione [Reference Example 1]
- Hygroscopic property (moisture absorption / change in water content): markedly absorbed moisture
- Time until deliquesced: 2 days
